{
  "source": "patent US20150273057A1",
  "about": "“Combination” (GLAXOSMITHKLINE LLC, priority 2012, published 2015)",
  "experiment_in_all_cases": "Cell growth inhibition assay (Cell Titer Glo, 7 days)",
  "assay_type_in_all_cases": "cell-based, Human",
  "key": {"A375": {"tested_on": "A375", "settings": "A375 melanoma line, relative to vehicle (DMSO)", "experimental": "(§1) Human colon tumor lines, Colo-205, HT-29, RKO, SW1417, LS411N and human melanoma line A375 were from ATCC. All lines were cultured in RPMI 1640 medium containing 10% fetal bovine serum (FBS).\n(§2) All cells were cultured for a minimum of 72 hours prior to cell plating. Cells were assayed in a 96-well tissue culture plate (NUNC 136102) of RPMI medium containing 10% FBS for all cells at 500 cells per well. […] ATP levels were determined by adding Cell Titer Glo® (Promega) according to the manufacturer's protocol. Briefly, Cell Titer Glo0 was added to each plate, incubated for 30 minutes then luminescent signal was read on the SpectraMax L plate reader with a 0.5 sec integration time.\n(§3) Inhibition of cell growth was estimated after treatment with compound or combination of compounds for 7 days and comparing the signal to cells treated with vehicle (DMSO). Cell growth was calculated relative to vehicle (DMSO) treated control wells."}, "Colo-205": {"tested_on": "Colo-205", "settings": "Colo-205 BRAF V600E mutant CRC line, relative to vehicle (DMSO)", "experimental": "as §1, §2, §3"}, "HT-29": {"tested_on": "HT-29", "settings": "HT-29 BRAF V600E mutant CRC line, relative to vehicle (DMSO)", "experimental": "as §1, §2, §3"}, "LS411N": {"tested_on": "LS411N", "settings": "LS411N BRAF V600E mutant CRC line, relative to vehicle (DMSO)", "experimental": "as §1, §2, §3"}, "RKO": {"tested_on": "RKO", "settings": "RKO BRAF V600E mutant CRC line, relative to vehicle (DMSO)", "experimental": "as §1, §2, §3"}, "SW1417": {"tested_on": "SW1417", "settings": "SW1417 BRAF V600E mutant CRC line, relative to vehicle (DMSO)", "experimental": "as §1, §2, §3"}},
  "data": [
    {"smiles": "CC(C)(C)c1nc(-c2cccc(NS(=O)(=O)c3c(F)cccc3F)c2F)c(-c2ccnc(N)n2)s1", "note": "[Compound B, N-{3-[5-(2-Amino-4-pyrimidinyl)-2-(1,1-dimethylethyl)-1,3-thiazol-4-yl]-2-fluorophenyl}-2,6-difluorobenzenesulfonamide]", "values": [
      {"measurement": "cell growth inhibition, agent alone", "setting": "A375", "result": "sensitive"},
      {"measurement": "cell growth inhibition, agent alone", "setting": "Colo-205", "result": "sensitive"},
      {"measurement": "cell growth inhibition, agent alone", "setting": "HT-29", "result": "sensitive"},
      {"measurement": "cell growth inhibition, agent alone", "setting": "LS411N", "result": "sensitive"},
      {"measurement": "cell growth inhibition, agent alone", "setting": "RKO", "result": "resistant"},
      {"measurement": "cell growth inhibition, agent alone", "setting": "SW1417", "result": "resistant"}
    ]},
    {"smiles": "CC(=O)Nc1cccc(-n2c(=O)n(C3CC3)c(=O)c3c(Nc4ccc(I)cc4F)n(C)c(=O)c(C)c32)c1", "note": "[Compound A, N-{3-[3-cyclopropyl-5-(2-fluoro-4-iodo-phenylamino)6,8-dimethyl-2,4,7-trioxo-3,4,6,7-tetrahydro-2H-pyrido[4,3-d]pyrimidin-1-yl]phenyl}acetamide]", "values": [
      {"measurement": "cell growth inhibition, agent alone", "setting": "A375", "result": "sensitive"},
      {"measurement": "cell growth inhibition, agent alone", "setting": "Colo-205", "result": "sensitive"},
      {"measurement": "cell growth inhibition, agent alone", "setting": "HT-29", "result": "sensitive"},
      {"measurement": "cell growth inhibition, agent alone", "setting": "LS411N", "result": "sensitive"},
      {"measurement": "cell growth inhibition, agent alone", "setting": "RKO", "result": "resistant"},
      {"measurement": "cell growth inhibition, agent alone", "setting": "SW1417", "result": "resistant"}
    ]},
    {"smiles": "C#Cc1cccc(Nc2ncnc3cc(OCCOC)c(OCCOC)cc23)c1", "note": "[erlotinib, reference compound]", "values": [
      {"measurement": "cell growth inhibition, agent alone", "setting": "A375", "result": "inactive"},
      {"measurement": "cell growth inhibition, agent alone", "setting": "Colo-205", "result": "inactive"},
      {"measurement": "cell growth inhibition, agent alone", "setting": "HT-29", "result": "inactive"},
      {"measurement": "cell growth inhibition, agent alone", "setting": "LS411N", "result": "inactive"},
      {"measurement": "cell growth inhibition, agent alone", "setting": "RKO", "result": "inactive"},
      {"measurement": "cell growth inhibition, agent alone", "setting": "SW1417", "result": "inactive"}
    ]}
  ]
}
